Source: the supplement of paper PMC10307832

Experiments:
Assay in all cases: relative viability (nuclei count vs DMSO), 5 days (fraction); higher = more cells survive
XMD13-2 + Palbociclib = compound: C1CC1C(=O)NC2=NNC3=C2C=CC(=C3)C4=CC(=CC=C4)C(=O)NC5CC5 [XMD13-2] + CC(=O)c1c(C)c2cnc(Nc3ccc(N4CCNCC4)cn3)nc2n(C2CCCC2)c1=O [Palbociclib] (partner 0.5 µM)
Summary of the method: (§1)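 Relative viability was taken as the ratio of nuclei in treated wells to nuclei in vehicle wells. Lung cancer cell lines in 1536-well plates received compounds by pin tool one day after seeding, either one drug alone or a fixed anchor-drug dose plus five library-drug doses (not always all listed) in √10 steps. Nuclei were counted on 4× images after 5 days of treatment, and values are medians of duplicate plates.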

ALW-II-49-7 + Phenformin = compound: Cc1ccc(C(=O)Nc2cccc(C(F)(F)F)c2)cc1Nc1cncc(C(N)=O)c1 [ALW-II-49-7] + N=C(N)NC(=N)NCCc1ccccc1 [Phenformin] (partner 250 µM)
Summary of the method: as §1

Dasatinib + Luminespib = compound: Cc1nc(Nc2ncc(C(=O)Nc3c(C)cccc3Cl)s2)cc(N2CCN(CCO)CC2)n1 [Dasatinib] + CCNC(=O)c1noc(-c2cc(C(C)C)c(O)cc2O)c1-c1ccc(CN2CCOCC2)cc1 [Luminespib] (partner 0.01 µM)
Summary of the method: as §1

Dasatinib + Pemetrexed = compound: Cc1nc(Nc2ncc(C(=O)Nc3c(C)cccc3Cl)s2)cc(N2CCN(CCO)CC2)n1 [Dasatinib] + Nc1nc2[nH]cc(CCc3ccc(C(=O)N[C@@H](CCC(=O)O)C(=O)O)cc3)c2c(=O)[nH]1 [Pemetrexed] (partner 0.2 µM)
Summary of the method: as §1

Cell Line	relative viability (XMD13-2 + Palbociclib; first compound 0.05 µM)	relative viability (XMD13-2 + Palbociclib; first compound 0.1581 µM)	relative viability (XMD13-2 + Palbociclib; first compound 0.5 µM)	relative viability (XMD13-2 + Palbociclib; first compound 1.581 µM)	relative viability (XMD13-2 + Palbociclib; first compound 5 µM)	relative viability (ALW-II-49-7 + Phenformin; first compound 0.08 µM)	relative viability (ALW-II-49-7 + Phenformin; first compound 0.253 µM)	relative viability (ALW-II-49-7 + Phenformin; first compound 0.8 µM)	relative viability (ALW-II-49-7 + Phenformin; first compound 2.53 µM)	relative viability (ALW-II-49-7 + Phenformin; first compound 8 µM)	relative viability (Dasatinib + Luminespib; first compound 0.005 µM)	relative viability (Dasatinib + Luminespib; first compound 0.01581 µM)	relative viability (Dasatinib + Luminespib; first compound 0.05 µM)	relative viability (Dasatinib + Luminespib; first compound 0.1581 µM)	relative viability (Dasatinib + Luminespib; first compound 0.5 µM)	relative viability (Dasatinib + Pemetrexed; first compound 0.005 µM)	relative viability (Dasatinib + Pemetrexed; first compound 0.01581 µM)	relative viability (Dasatinib + Pemetrexed; first compound 0.05 µM)	relative viability (Dasatinib + Pemetrexed; first compound 0.1581 µM)	relative viability (Dasatinib + Pemetrexed; first compound 0.5 µM)
NCI-H2087	0.248	0.261	0.184	0.184	0.258	0.526	0.459	0.488	0.467	0.445	0.211	0.133	0.152	0.148	0.149	0.719	0.617	0.67	0.649	0.471
EPLC-272H	0.314	0.344	0.329	0.279	0.317	0.29		0.23	0.342	0.303	0.679	0.392	0.512	0.121	0.111	0.385	0.356	0.286	0.154	0.198
LXF-289	0.627	0.64	0.535	0.634	0.612	0.515	0.554	0.556	0.536	0.526	0.745	0.564	0.648	0.334	0.138	0.918	0.987	1.13	0.687	0.205
COR-L23	0.248	0.298	0.295	0.294	0.365	0.461	0.448	0.426	0.462	0.363	0.698	0.531	0.7	0.461	0.299	0.211	0.196	0.19	0.19	0.18
RERF-LC-KJ	1.06	1.11	1.1	1.04	1.03	0.419	0.456	0.414	0.373	0.397	1.3	1.05	1.06	0.982	0.993	0.53	0.466	0.405	0.471	0.457
NCI-H1755	0.468	0.444	0.457	0.474	0.409	0.584	0.627	0.612	0.55	0.405	0.522	0.301	0.375	0.303	0.16	0.465	0.357	0.413	0.346	0.235
PC-14	0.597	0.526	0.517	0.586	0.568	0.562	0.637	0.528	0.406	0.546	0.237	0.113	0.152	0.158	0.105	0.146	0.121	0.108	0.119	0.124
NCI-H322M	0.494	0.491	0.498		0.49	0.684	0.697	0.711	0.777	0.612	0.779	0.491	0.38	0.288	0.232	0.576	0.495	0.394	0.273	0.231
